According to US7267815B2, “Methods and reagents for the enhancement of virus transduction in the bladder epithelium” (priority 2002, dated 2007):

Columns and labels:
mice bladder urothelium [1] = test: Adenovirus formulated with different concentrations of Dodecyl-β-D-Maltoside, infectivity of bladder urothelium; type: in vivo, Balb/c Mouse; details: for gene expression in bladder: 20 min. instillation
Experimental: • Species: Female Balb/c Mouse (Taconic Laboratory)-2/group • Study Design: To test the effect of formulating Ad-βgal virus with different concentrations of Dodecyl-β-D-Maltoside and the resultant infection of mice bladder urothelium • Dose/Route (Viral Particles #/dose):
An equal volume of 2× DDM and 2× Ad.CMV.LacZ was mixed together immediately before instillation into the bladder. […] But with 45 min. instillation, all animals with 0.05%-0.2% DDM with Ad-βgal virus had 100% gene expression in mice bladder.

[2] = system: SD rat bladder epithelium; test: Adenovirus dose titration with SDS or DDM pretreatment; type: in vivo, Sprague Dawley Rat; details: 0.1% pretreatment
Text: All the animals had >90% in Ad-βgal gene expression in mice bladder. Adenovirus Dose Titration with Different Chemical Agents Pretreatment on SD Rat Bladder Epithelium • Species: Female Sprague Dawley Rat (Taconic Laboratory)—2/group • Study Design: To test the virus infectivity of rat bladder epithelium with different doses of Adenovirus following the pretreatment with SDS or DDM. This study also explored relationship between bladder volume and residual of SDS or DDM for adenovirus infectivity. • Dose/Route:
Rat bladders infected with 4×10^10 vp adenovirus achieved >90% Ad-βgal gene expression levels whereas rat bladders infected with 4×10^9 vp adenovirus had Ad-βgal gene expression levels range from 30% to 50%. […] Efficacy of Dodecyl-β-D-Maltoside as a Pretreatment Agent Prior to Adenovirus Infection of Mice Bladder Urothelium • Species: Female Balb/c Mouse (Taconic Laboratory)—2/group • Study Design: To test DDM from two different suppliers as pretreatment agents to enhance the adenovirus infection of mice bladder urothelium in a large group of animals. • Dose/Route: […]

mice bladder urothelium [3] = test: DDM from two suppliers as pretreatment agent prior to adenovirus infection; type: in vivo, Balb/c Mouse; details: two different lots of DDM, pretreatment QQ5 minQ, 1×10^10 vp/dose for 15 min
Text: Rat bladders infected with 4×10^10 vp adenovirus achieved >90% Ad-βgal gene expression levels whereas rat bladders infected with 4×10^9 vp adenovirus had Ad-βgal gene expression levels range from 30% to 50%. […] Efficacy of Dodecyl-β-D-Maltoside as a Pretreatment Agent Prior to Adenovirus Infection of Mice Bladder Urothelium • Species: Female Balb/c Mouse (Taconic Laboratory)—2/group • Study Design: To test DDM from two different suppliers as pretreatment agents to enhance the adenovirus infection of mice bladder urothelium in a large group of animals. • Dose/Route:
In each case, >90% Ad-βgal expression was achieved. Therefore, DDM from either manufacturer is a good candidate for a chemical enhancer for adenovirus infection in mice bladder. Efficacy of Dodecyl-β-D-Maltoside as Chemical Enhancer Prior to Adenovirus Infection of SW780+ Luc Orthotopic Bladder Tumor Model in Mice • Species: Female NCR nu/nu Mouse (Taconic Laboratory)-2/group • Study Design: To show DDM pretreatments enhance Ad.Lac Z infectivity in mice bladder urothelium. To further confirm the enhancer effect on orthotopic tumors, two mice bearing orthotopic SW780 bladder tumors were pretreated with or without DDM (QQ5 minQ) followed by 15 min Ad.Lac Z instillation. The Ad.Lac Z gene expression levels were checked in these tumor cells 4 days post Ad.Lac Z infection. • Dose/Route: […]

adenovirus = test: Study #3: compatibility of adenovirus with selected enhancers (plaque assay); type: physicochemical
Experimental: For this study, each sample was incubated at 37° C. or 25° C. before the plaque assay started.

adenovirus (Ad-LacZ) = test: Study #5: adenovirus stability after incubation with 0.1% SDS or 0.1% DDM (plaque assay); type: physicochemical; details: 0.1% solution, one hour at 25° C. or 37° C.
Experimental: In this study, adenovirus (Ad-LacZ) preparations (1.0×10^12 vp/ml) were mixed with solutions of SDS or DDM to obtain a mixture of adenovirus and each of these surfactants. […] These samples were incubated at 25° C. or 37° C. for one hour before freezing. They were sent to assay services for plaque assay analysis.

bladder epithelium = test: Transduction efficacy of exemplary pretreatment agents (summary Table 7); type: in vivo, mouse; details: pretreatment agent

`CCCCCCCCCCCCO[C@@H]1O[C@H](CO)[C@@H](O[C@H]2O[C@H](CO)[C@@H](O)[C@H](O)[C@H]2O)[C@H](O)[C@H]1O` [n-dodecyl β-D-maltoside, n-dodecyl-β-D-maltoside] was tested, and the “gene expression in bladder” value (mice bladder urothelium [1]; 0.05% DDM formulated with Ad-βgal virus) was “about 40%”, the “gene expression in mice bladder” value (mice bladder urothelium [1]; 0.05%-0.2% DDM with Ad-βgal virus, 45 min. instillation) was 100% and the “gene expression in bladder” value (mice bladder urothelium [1]; 0.1% DDM formulated with Ad-βgal virus) was “about 80%”. The “gene transduction (in words)” value (mice bladder urothelium [1]; 10 min. virus instillation after DDM pretreatment) was “gene transduction could be achieved”, the “transduction rate (in words)” value (mice bladder urothelium [1]; DDM formulated with virus, 10 min. instillation) was “did not achieve an acceptable transduction rate” and the “removal of GAG layer of bladder epithelium” value [2] was “effective to remove GAG layer of bladder epithelium”. For the same compound, the Ad-βgal expression (mice bladder urothelium [3]) was greater than 90%, the “Average pfu/mL” value (adenovirus; 25° C., 2 hours) was 1.32E+10 pfu/mL and the Ratio vp/pfu (adenovirus; 25° C., 2 hours) was 16 vp/pfu. The “Average pfu/mL” value (adenovirus; 37° C., 1 hour) was 1.36E+10 pfu/mL, the Ratio vp/pfu (adenovirus; 37° C., 1 hour) was 16 vp/pfu and the “compatibility with the adenovirus (in words)” value (adenovirus; under the experimental conditions of Table 5) was “compatible with the adenovirus”. The “effect on adenovirus (in words)” value (adenovirus (Ad-LacZ)) was “no adverse effects on adenovirus” and the “Transduction Efficacy” value (bladder epithelium) was “++++ (“++++” means >75% transduction efficacy)”.
